According to PubChem BioAssay AID2060330 (Molecular Pharmacology Branch, DTP, NCI, 2025):

Tested on: LG0703-F948-PDC spheroids with HUVEC/MSC, viability
Test: Anticancer human tumor LG0703-F948-PDC patient-derived lung adenocarcinoma cell line growth inhibition [IpAb]
Conditions: for IC50: curve of first compound; for viability, T/C: stronger effect = lower value
Procedure, shortened: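 Multi-cell spheroids of 60% tumour cells, 25% HUVEC and 15% MSC in ultra-low-attachment U-bottom wells, treated with agents combined with ipatasertib or abemaciclib. Half-log ranges top out near clinical Cmax, or 10 microM when Cmax is unknown.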

[1] = second compound 0.01 µM, first compound 0.0316 µM
[2] = second compound 0.01 µM, first compound 0.1 µM
[3] = second compound 0.01 µM, first compound 0.316 µM
[4] = second compound 0.01 µM, first compound 1 µM
[5] = second compound 0.0316 µM, first compound 0.0316 µM
[6] = second compound 0.0316 µM, first compound 0.1 µM
[7] = second compound 0.0316 µM, first compound 0.316 µM
[8] = second compound 0.0316 µM, first compound 1 µM
[9] = second compound 0.1 µM, first compound 0.0316 µM
[10] = second compound 0.1 µM, first compound 0.1 µM
[11] = second compound 0.1 µM, first compound 0.316 µM
[12] = second compound 0.1 µM, first compound 1 µM
[13] = second compound 0.316 µM, first compound 0.0316 µM
[14] = second compound 0.316 µM, first compound 0.1 µM
[15] = second compound 0.316 µM, first compound 0.316 µM
[16] = second compound 0.316 µM, first compound 1 µM
[17] = second compound 1 µM, first compound 0.0316 µM
[18] = second compound 1 µM, first compound 0.1 µM
[19] = second compound 1 µM, first compound 0.316 µM
[20] = second compound 1 µM, first compound 1 µM
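Further: spheroids exposed to compounds for seven days before readout.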
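Wherever viability, T/C is given: T/C percent relative to DMSO vehicle wells set as 100% viability.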

Structure (SMILES): CCCS(=O)(=O)Nc1ccc(F)c(C(=O)c2c[nH]c3ncc(-c4ccc(Cl)cc4)cc23)c1F + CCN1CCN(Cc2ccc(Nc3ncc(F)c(-c4cc(F)c5nc(C)n(C(C)C)c5c4)n3)nc2)CC1
- IC50 (second compound 0.01 µM): > 10 µM
- IC50 (second compound 0.0316 µM): > 10 µM
- IC50 (second compound 0.1 µM): > 10 µM
- IC50 (second compound 0.316 µM): > 10 µM
- IC50 (second compound 1 µM): > 10 µM
- viability, T/C [1]: 112%
- viability, T/C [2]: 115%
- viability, T/C [3]: 101%
- viability, T/C [4]: 99.1%
- viability, T/C (second compound 0.01 µM, first compound 3.16 µM): 100%
- viability, T/C (second compound 0.01 µM, first compound 10 µM): 59.5%
- viability, T/C [5]: 94.5%
- viability, T/C [6]: 86.9%
- viability, T/C [7]: 95.1%
- viability, T/C [8]: 89.5%
- viability, T/C (second compound 0.0316 µM, first compound 3.16 µM): 90.9%
- viability, T/C (second compound 0.0316 µM, first compound 10 µM): 67.2%
- viability, T/C [9]: 91%
- viability, T/C [10]: 81.6%
- viability, T/C [11]: 91.7%
- viability, T/C [12]: 90.9%
- viability, T/C (second compound 0.1 µM, first compound 3.16 µM): 87.2%
- viability, T/C (second compound 0.1 µM, first compound 10 µM): 59.1%
- viability, T/C [13]: 89%
- viability, T/C [14]: 97.3%
- viability, T/C [15]: 76.6%
- viability, T/C [16]: 88.1%
- viability, T/C (second compound 0.316 µM, first compound 3.16 µM): 79%
- viability, T/C (second compound 0.316 µM, first compound 10 µM): 51.5%
- viability, T/C [17]: 90.6%
- viability, T/C [18]: 68.2%
- viability, T/C [19]: 52.5%
- viability, T/C [20]: 80%
- viability, T/C (second compound 1 µM, first compound 3.16 µM): 75.6%
- viability, T/C (second compound 1 µM, first compound 10 µM): 44.8%

Structure (SMILES): COc1c(OCCCN2CCOCC2)ccc2c3n(c(=NC(=O)c4cnc(N)nc4)nc12)CCN3 + CCN1CCN(Cc2ccc(Nc3ncc(F)c(-c4cc(F)c5nc(C)n(C(C)C)c5c4)n3)nc2)CC1
- IC50 (second compound 0.01 µM): 0.0367 µM
- IC50 (second compound 0.0316 µM): 0.0322 µM
- IC50 (second compound 0.1 µM): 0.0306 µM
- IC50 (second compound 0.316 µM): 0.0253 µM
- IC50 (second compound 1 µM): 0.017 µM
- viability, T/C (second compound 0.01 µM, first compound 0.00316 µM): 101%
- viability, T/C (second compound 0.01 µM, first compound 0.01 µM): 79.2%
- viability, T/C [1]: 58.3%
- viability, T/C [2]: 20.7%
- viability, T/C [3]: 5.32%
- viability, T/C [4]: 3.66%
- viability, T/C (second compound 0.0316 µM, first compound 0.00316 µM): 90.4%
- viability, T/C (second compound 0.0316 µM, first compound 0.01 µM): 82.8%
- viability, T/C [5]: 47.6%
- viability, T/C [6]: 22.8%
- viability, T/C [7]: 4.08%
- viability, T/C [8]: 3.07%
- viability, T/C (second compound 0.1 µM, first compound 0.00316 µM): 85.4%
- viability, T/C (second compound 0.1 µM, first compound 0.01 µM): 77.1%
- viability, T/C [9]: 48%
- viability, T/C [10]: 21.2%
- viability, T/C [11]: 5.61%
- viability, T/C [12]: 3.57%
- viability, T/C (second compound 0.316 µM, first compound 0.00316 µM): 81.6%
- viability, T/C (second compound 0.316 µM, first compound 0.01 µM): 71.2%
- viability, T/C [13]: 43.7%
- viability, T/C [14]: 23.7%
- viability, T/C [15]: 9.48%
- viability, T/C [16]: 9.41%
- viability, T/C (second compound 1 µM, first compound 0.00316 µM): 82.3%
- viability, T/C (second compound 1 µM, first compound 0.01 µM): 63%
- viability, T/C [17]: 33.9%
- viability, T/C [18]: 24.6%
- viability, T/C [19]: 19.3%
- viability, T/C [20]: 11.8%
